Measured values published in patent US6440903B1, “Substituted 2,4-diamino-1,3,5-triazines as herbicides” (Bayer Aktiengesellschaft, priority 1996, dated 2002).

Legend:
[1] = system: weeds; assay: Pre-emergence test (summary in text); type: in vivo; conditions: result in words
Experimental: (§1) Solvent: 5 parts by weight of acetone
(§2) Emulsifier: 1 part by weight of alkylaryl polyglycol ether
(§3) To produce a suitable preparation of active compound, 1 part by weight of active compound is mixed with the stated amount of solvent, the stated amount of emulsifier is added and the concentrate is diluted with water to the desired concentration.
Seeds of the test plants are sown in normal soil. After about 24 hours, the soil is watered with the preparation of active compound. The amount of water per unit area is advantageously kept constant. The concentration of active compound in the preparation is immaterial, only the application rate of active compound per unit area matters.
After three weeks, the degree of damage to the plants is scored visually in % damage in comparison to the development of the untreated control.
(§4) 0%=no effect (like untreated control)

[2] = system: weeds; assay: Post-emergence test (summary in text); type: in vivo; conditions: result in words
Experimental: as §1, §2, §3
Test plants which have a height of 5-15 cm are sprayed with the preparation of active compound such that the particular amounts of active compounds desired are applied per unit area. The concentration of the spray liquor is chosen so that the particular amounts of active compound desired are applied in 1000 l of water/ha.
After three weeks, the degree of damage to the plants is scored visually in % damage in comparison to the untreated control.
as §4

[3] = system: Setaria; assay: Post-emergence test; type: in vivo; conditions: Setaria, 504 h, greenhouse, scored after three weeks, read-out: % damage, Setaria; for pest or weed control at 250 g/ha: 250 g of ai./ha
Experimental: (§5) Post-emergence Test Solvent: 5 parts by weight of acetone Emulsifier: 1 part by weight of alkylaryl polyglycol ether To produce a suitable preparation of active compound, 1 part by weight of active compound is mixed with the stated amount of solvent, the stated amount of emulsifier is added and the concentrate is diluted with water to the desired concentration. Test plants which have a height of 5-15 cm are sprayed with the preparation of active compound such that the particular amounts of active compounds desired are applied per unit area. The concentration of the spray liquor is chosen so that the particular amounts of active compound desired are applied in 1000 l of water/ha. After three weeks, the degree of damage to the plants is scored visually in % damage in comparison to the untreated control. The Figures Denote: 0%=no effect (like untreated control) 100%=total destruction

[4] = system: Amaranthus; assay: Post-emergence test; type: in vivo; conditions: Amaranthus, 504 h, greenhouse, scored after three weeks, read-out: % damage, Amaranthus; for pest or weed control at 250 g/ha: 250 g of ai./ha
Experimental: as §5

[5] = system: Sinapis; assay: Post-emergence test; type: in vivo; conditions: greenhouse, 1000 g of ai./ha, scored after three weeks
Experimental: as §5

[6] = system: Chenopodium; assay: Post-emergence test; type: in vivo; conditions: Chenopodium, 504 h, greenhouse, 250 g of ai./ha, scored after three weeks, read-out: % damage, Chenopodium
Experimental: as §5

[7] = system: Wheat; assay: Post-emergence test; type: in vivo; conditions: Triticum aestivum, 504 h, greenhouse, 250 g of ai./ha, scored after three weeks, read-out: % damage, Wheat
Experimental: as §5

[8] = system: Viola; assay: Post-emergence test; type: in vivo; conditions: 504 h, greenhouse, 250 g of ai./ha, scored after three weeks, read-out: % damage, Viola
Experimental: as §5

[9] = system: Polygonum; assay: Post-emergence test; type: in vivo; conditions: Polygonum, 504 h, greenhouse, 250 g of ai./ha, scored after three weeks, read-out: % damage, Polygonum
Experimental: as §5

CC(Cl)c1nc(N)nc(NC(C)c2ccc(Cl)cc2)n1 (stereo not drawn) [Example 157]
activity against weeds [1]: strong activity

CC(Nc1nc(N)nc(C(C)(C)F)n1)c1ccc(Cl)cc1 (stereo not drawn) [Example 22]
activity against weeds [1]: strong activity

COCc1nc(NC(C)=O)nc(NC(C)c2ccc(Cl)cc2)n1 (stereo not drawn) [Example 178]
activity against weeds [2]: strong activity | melting point: 155 °C

CC(Nc1nc(N)nc(C(C)(C)F)n1)c1ccc(Cl)cc1 (stereo not drawn) [Example 16]
activity against weeds [2]: strong activity | activity against weeds [1]: strong activity

CC(Nc1nc(N)nc(C(F)(F)F)n1)c1ccc([S+](C)[O-])cc1 (racemic) [Example 3, 2-amino-4-trifluoromethyl-6-[1-(4-methylsulphinyl-phenyl)-ethylamino]-1,3,5-triazine]
melting point: 220 °C (dec.)

CC(Nc1nc(N)nc(C(C)(Cl)Cl)n1)c1ccc(Cl)cc1 (stereo not drawn) [Example 159]
activity against weeds [1]: strong activity

CCc1nc(NC(C)=O)nc(NC(C)c2ccc(Cl)cc2)n1 (stereo not drawn) [Example 173]
activity against weeds [2]: strong activity | melting point: 182 °C

CC(Nc1nc(N)nc(C(Cl)Cl)n1)c1ccc(Cl)cc1 (stereo not drawn) [Example 168]
activity against weeds [2]: strong activity | melting point: 133 °C

CC(=O)Nc1nc(NC(C)c2ccc(Cl)cc2)nc(C(Cl)Cl)n1 (stereo not drawn) [Example 145]
activity against weeds [2]: strong activity | melting point: 132 °C

COCc1nc(NC(C)=O)nc(NC(C)c2ccc(SOC)cc2)n1 (stereo not drawn)
pest or weed control at 1000 g/ha ([3]; 1000 g of ai./ha): 100% | pest or weed control at 1000 g/ha ([4]; 1000 g of ai./ha): 100% | % damage, Sinapis [5]: 100%

CSc1ccc(C(C)Nc2nc(N)nc(C(C)(Cl)Cl)n2)cc1 (stereo not drawn) [Example 126]
activity against weeds [2]: strong activity | melting point: 133 °C

CSc1ccc(C(C)Nc2nc(N)nc(C(Cl)Cl)n2)cc1 (stereo not drawn) [Example 108]
activity against weeds [2]: strong activity | melting point: 125 °C

CC(=O)Nc1nc(NC(C)c2ccc(Cl)cc2)nc(C(C)Cl)n1 (stereo not drawn) [Example 146]
activity against weeds [2]: strong activity | melting point: 126 °C

CC(Nc1nc(N)nc(C(C)(Cl)Cl)n1)c1ccc(Cl)cc1 (stereo not drawn) [drawing 121]
pest or weed control at 250 g/ha [6]: 100% | plant injury at 250 g/ha [7]: 10% | pest or weed control at 250 g/ha [3]: 80% | pest or weed control at 250 g/ha [4]: 100% | pest or weed control at 250 g/ha [8]: 100% | pest or weed control at 250 g/ha [9]: 100%

COCc1nc(N)nc(NC(C)c2ccc(Cl)cc2)n1 (stereo not drawn) [Example 98]
activity against weeds [2]: strong activity | melting point: 149 °C

COCc1nc(N)nc(NC(C)c2ccc(Cl)cc2)n1 (stereo not drawn) [drawing 118]
pest or weed control at 250 g/ha [6]: 100% | plant injury at 250 g/ha [7]: 10% | pest or weed control at 250 g/ha [3]: 80% | pest or weed control at 250 g/ha [4]: 100% | pest or weed control at 250 g/ha [8]: 100% | pest or weed control at 250 g/ha [9]: 100%

CCC(Nc1nc(NC(C)=O)nc(C(F)(F)F)n1)c1ccc(Cl)cc1 (stereo not drawn) [Example 90]
activity against weeds [2]: strong activity | melting point: 116 °C
